Measurements published in US11530198B2, “Compositions and methods for treating infections” (priority 2016, dated 2022).
Where two headings read alike, the source gives them in different places.

Legend:
[1] = target: T. gondii DHFR (tgDHFR) (Toxoplasma gondii, UniProt Q07422)
[2] = target: T. brucei DHFR (tbDHFR) (Trypanosoma brucei brucei, UniProt Q27783); experiment: DHFR inhibition assay (diaphorase/resazurin coupled), T. brucei DHFR; format: biochemical; details: for Average DHFR selectivity (h/tb)*-DHFR IC50: hDHFR IC50/tbDHFR IC50
[3] = target: hDHFR (Homo sapiens (Human), UniProt P00374); experiment: DHFR inhibition assay (diaphorase/resazurin coupled, fluorescence of resorufin), human DHFR; format: biochemical
[4] = target: T. cruzi DHFR (tcDHFR) (Trypanosoma cruzi, UniProt Q27793); experiment: DHFR inhibition assay (diaphorase/resazurin coupled), T. cruzi DHFR; format: biochemical; details: hDHFR IC50/tcDHFR IC50

Sequence of hDHFR (P00374 whole entry): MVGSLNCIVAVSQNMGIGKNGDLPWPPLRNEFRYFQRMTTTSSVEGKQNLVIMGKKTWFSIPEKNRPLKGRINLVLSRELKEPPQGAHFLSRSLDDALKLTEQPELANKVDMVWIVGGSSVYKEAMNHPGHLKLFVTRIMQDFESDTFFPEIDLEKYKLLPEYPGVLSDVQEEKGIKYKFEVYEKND

CCc1ncc(-c2cccc(N3CCN(c4cnc(N)nc4N)CC3)c2)cn1 [Compound 95, 5-(4-(3-(2-ethylpyrimidin-5-yl)phenyl)piperazin-1-yl)pyrimidine-2,4-diamine]
Average DHFR selectivity (h/tg) ([1]; hDHFR IC50/tgDHFR IC50): 218.78
Average DHFR selectivity (h/tb)*-DHFR IC50 [2]: 375

Nc1ncc(N2CCN(c3cccc(-c4cnc(C5CC5)nc4)c3)CC2)c(N)n1 [Compound 86, 5-(4-(3-(2-cyclopropylpyrimidin-5-yl)phenyl)piperazin-1-yl)pyrimidine-2,4-diamine]
Average DHFR selectivity (h/tb)*-DHFR IC50 [2]: 330

COc1ncccc1-c1cccc(N2CCN(c3cnc(N)nc3N)CC2)c1 [Compound 80, 5-(4-(3-(2-methoxypyridin-3-yl)phenyl)piperazin-1-yl)pyrimidine-2,4-diamine]
Average DHFR selectivity (h/tg) ([1]; hDHFR IC50/tgDHFR IC50): 165.32

Nc1ncc(N2CCN(c3cccc(C4CC4)c3)CC2)c(N)n1 [Compound 66, 5-(4-(3-cyclopropylphenyl)piperazin-1-yl)pyrimidine-2,4-diamine]
tgDHFR pIC50-DHFR primary assay [1]: 7.54
hDHFR pIC50-DHFR primary assay ([3]; Table 11): 5.79

Nc1ncc(N2CCN(c3ccc(Cl)cc3)CC2)c(N)n1 [Compound 6, 5-(4-(4-chlorophenyl)piperazin-1-yl)pyrimidine-2,4-diamine]
tgDHFR pIC50-DHFR primary assay [1]: 7.34
hDHFR pIC50-DHFR primary assay ([3]; Table 11): 5.96

Nc1ncc(N2CCN(c3ccc(Cl)c(Cl)c3)CC2)c(N)n1 [Compound 1, 5-(4-(3,4-dichlorophenyl)piperazin-1-yl)pyrimidine-2,4-diamine]
Average DHFR selectivity (h/tg) ([1]; hDHFR IC50/tgDHFR IC50): 5.5

Cc1nc(N)nc(N)c1N1CCN(c2ccccc2)CC1 [Compound 47, 6-methyl-5-(4-phenylpiperazin-1-yl)pyrimidine-2,4-diamine]
Average DHFR selectivity (h/tg) ([1]; hDHFR IC50/tgDHFR IC50): 84.63

CN(C)c1ncc(-c2cccc(N3CCN(c4cnc(N)nc4N)CC3)c2)cn1 [Compound 96, 5-(4-(3-(2-(dimethylamino)pyrimidin-5-yl)phenyl)piperazin-1-yl)pyrimidine-2,4-diamine]
Average DHFR selectivity (h/tg) ([1]; hDHFR IC50/tgDHFR IC50): 115.48

Nc1ncc(N2CCN(c3cccc(-c4cnccn4)c3)CC2)c(N)n1 [Compound 104, 5-(4-(3-(pyrazin-2-yl)phenyl)piperazin-1-yl)pyrimidine-2,4-diamine]
tgDHFR pIC50-DHFR primary assay [1]: 7.99
hDHFR pIC50-DHFR primary assay ([3]; Table 11): 5.88

CCc1nc(N)nc(N)c1N1CCN(c2ccccc2)CC1 [Compound 28, 6-ethyl-5-(4-phenylpiperazin-1-yl)pyrimidine-2,4-diamine]
Average DHFR selectivity (h/tg) ([1]; hDHFR IC50/tgDHFR IC50): 235.78

CCCc1nc(N)nc(N)c1N1CCN(c2ncc(C)cn2)CC1 [Compound 59, 5-(4-(5-methylpyrimidin-2-yl)piperazin-1-yl)-6-propylpyrimidine-2,4-diamine]
Average DHFR selectivity (h/tg) ([1]; hDHFR IC50/tgDHFR IC50): 118.81

CCc1nc(N)nc(N)c1N1CCN(c2ccc(C)cc2)CC1 [Compound 39, 6-ethyl-5-(4-(p-tolyl)piperazin-1-yl)pyrimidine-2,4-diamine]
Average DHFR selectivity (h/tg) ([1]; hDHFR IC50/tgDHFR IC50): 144.58

CCCc1nc(N)nc(N)c1N1CCN(c2ccc(OC)cn2)CC1 [Compound 60, 5-(4-(5-methoxypyridin-2-yl)piperazin-1-yl)-6-propylpyrimidine-2,4-diamine]
Average DHFR selectivity (h/tg) ([1]; hDHFR IC50/tgDHFR IC50): 149.75

Nc1ncc(N2CCN(c3cccc(C(F)(F)F)c3)CC2)c(N)n1 [Compound 3, 5-(4-(3-(trifluoromethyl)phenyl)piperazin-1-yl)pyrimidine-2,4-diamine]
tgDHFR pIC50-DHFR primary assay [1]: 7.21
hDHFR pIC50-DHFR primary assay ([3]; Table 11): 6.27

CC1CN(c2cccc(-c3ccccc3)c2)CCN1c1cnc(N)nc1N (stereo not drawn) [Compound 27, 5-(4-([1,1′-biphenyl]-3-yl)-2-methylpiperazin-1-yl)pyrimidine-2,4-diamine]
Average DHFR selectivity (h/tg) ([1]; hDHFR IC50/tgDHFR IC50): 218.78

Nc1ncc(N2CCN(c3cccc(-c4ccnnc4)c3)CC2)c(N)n1 [Compound 73, 5-(4-(3-(pyridazin-4-yl)phenyl)piperazin-1-yl)pyrimidine-2,4-diamine]
tgDHFR pIC50-DHFR primary assay [1]: 8.22
hDHFR pIC50-DHFR primary assay ([3]; Table 11): 5.96

CCc1nc(N)nc(N)c1N1CCN(c2ccccn2)CC1 [Compound 34, 6-ethyl-5-(4-(pyridin-2-yl)piperazin-1-yl)pyrimidine-2,4-diamine]
Average DHFR selectivity (h/tg) ([1]; hDHFR IC50/tgDHFR IC50): 158.49

Nc1ncc(N2CCN(c3cccc(-c4cccc(F)c4)c3)CC2)c(N)n1 [Compound 64, 5-(4-(3′-fluoro-[1,1′-biphenyl]-3-yl)piperazin-1-yl)pyrimidine-2,4-diamine]
Average DHFR selectivity (h/tg) ([1]; hDHFR IC50/tgDHFR IC50): 93.86

CNc1ncc(-c2cccc(N3CCN(c4cnc(N)nc4N)CC3)c2)cn1 [Compound 97, 5-(4-(3-(2-(methylamino)pyrimidin-5-yl)phenyl)piperazin-1-yl)pyrimidine-2,4-diamine]
Average DHFR selectivity (h/tg) ([1]; hDHFR IC50/tgDHFR IC50): 131.33

Nc1ncc(N2CCN(c3ccc(F)cc3)CC2)c(N)n1 [Compound 116, 5-(4-(4-fluorophenyl)piperazin-1-yl)pyrimidine-2,4-diamine]
Average DHFR selectivity (h/tc) [4]: 100

Nc1ncc(N2CCN(c3cccc(-c4ccncn4)c3)CC2)c(N)n1 [Compound 102, 5-(4-(3-(pyrimidin-4-yl)phenyl)piperazin-1-yl)pyrimidine-2,4-diamine]
Average DHFR selectivity (h/tc) [4]: 103

N#Cc1cccc(-c2cccc(N3CCN(c4cnc(N)nc4N)CC3)c2)c1 [Compound 67, 3′-(4-(2,4-diaminopyrimidin-5-yl)piperazin-1-yl)-[1,1′-biphenyl]-3-carbonitrile]
Average DHFR selectivity (h/tg) ([1]; hDHFR IC50/tgDHFR IC50): 77.18

Nc1ncc(N2CCN(c3cccc(-c4ncccn4)c3)CC2)c(N)n1 [Compound 103, 5-(4-(3-(pyrimidin-2-yl)phenyl)piperazin-1-yl)pyrimidine-2,4-diamine]
tgDHFR pIC50-DHFR primary assay [1]: 7.56
hDHFR pIC50-DHFR primary assay ([3]; Table 11): 5.89

CCCc1nc(N)nc(N)c1N1CCN(c2ccc(F)cc2)CC1 [Compound 52, 5-(4-(4-fluorophenyl)piperazin-1-yl)-6-propylpyrimidine-2,4-diamine]
Average DHFR selectivity (h/tg) ([1]; hDHFR IC50/tgDHFR IC50): 303.92

CCCc1nc(N)nc(N)c1N1CCN(c2ccccn2)CC1 [Compound 56, 6-propyl-5-(4-(pyridin-2-yl)piperazin-1-yl)pyrimidine-2,4-diamine]
Average DHFR selectivity (h/tg) ([1]; hDHFR IC50/tgDHFR IC50): 269.78

Nc1nc(N)c(N2CCN(c3ccccc3)CC2)c(CC2CC2)n1 [Compound 106]
Average DHFR selectivity (h/tg) ([1]; hDHFR IC50/tgDHFR IC50): 218.96

Nc1ncc(N2CCN(c3ccc(C(F)(F)F)cc3)CC2)c(N)n1 [Compound 115, 5-(4-(4-(trifluoromethyl)phenyl)piperazin-1-yl)pyrimidine-2,4-diamine]
Average DHFR selectivity (h/tc) [4]: 132

COc1ccc(N2CCN(c3cnc(N)nc3N)CC2)cc1 [Compound 114, 5-(4-(4-methoxyphenyl)piperazin-1-yl)pyrimidine-2,4-diamine]
Average DHFR selectivity (h/tc) [4]: 144

Nc1ncc(N2CCC(c3ccccc3)CC2)c(N)n1 [Compound 15, 5-(4-phenylpiperidin-1-yl)pyrimidine-2,4-diamine]
Average DHFR selectivity (h/tg) ([1]; hDHFR IC50/tgDHFR IC50): 25.26

CCc1nc(N)nc(N)c1N1CCN(c2cccc(OC)c2)CC1 [Compound 33, 6-ethyl-5-(4-(3-methoxyphenyl)piperazin-1-yl)pyrimidine-2,4-diamine]
Average DHFR selectivity (h/tg) [1]: 120.23

Cc1ncc(-c2cccc(C3CCN(c4cnc(N)nc4N)CC3)c2)cn1 [Compound 94, 5-(4-(3-(2-methylpyrimidin-5-yl)phenyl)piperidin-1-yl)pyrimidine-2,4-diamine]
hDHFR pIC50-DHFR primary assay ([3]; Table 13): 6.49
tbDHFR pIC50-DHFR primary assay ([2]; Table 13, T. brucei DHFR): 9.05
Average DHFR selectivity (h/tb)*-DHFR IC50 [2]: 357

Cc1cccc(N2CCN(c3cnc(N)nc3N)CC2)c1 [Compound 7, 5-(4-(m-tolyl)piperazin-1-yl)pyrimidine-2,4-diamine]
tgDHFR pIC50-DHFR primary assay [1]: 7.12
hDHFR pIC50-DHFR primary assay ([3]; Table 11): 5.22

CCc1nc(N)nc(N)c1N1CCN(c2ccc(C)cn2)CC1 [Compound 45, 6-ethyl-5-(4-(5-methylpyridin-2-yl)piperazin-1-yl)pyrimidine-2,4-diamine]
Average DHFR selectivity (h/tg) ([1]; hDHFR IC50/tgDHFR IC50): 136.15

Nc1ncc(N2CCN(c3cccc(-c4cnc(Cl)nc4)c3)CC2)c(N)n1 [Compound 100, 5-(4-(3-(2-chloropyrimidin-5-yl)phenyl)piperazin-1-yl)pyrimidine-2,4-diamine]
Average DHFR selectivity (h/tg) ([1]; hDHFR IC50/tgDHFR IC50): 197.28
Average DHFR selectivity (h/tb)*-DHFR IC50 [2]: 522

CCc1nc(N)nc(N)c1N1CCN(c2ccc(F)cn2)CC1 [Compound 44, 6-ethyl-5-(4-(5-fluoropyridin-2-yl)piperazin-1-yl)pyrimidine-2,4-diamine]
Average DHFR selectivity (h/tg) ([1]; hDHFR IC50/tgDHFR IC50): 71.23

CCc1nc(N)nc(N)c1N1CCN(c2cccc(C)c2)CC1 [Compound 31, 6-ethyl-5-(4-(m-tolyl)piperazin-1-yl)pyrimidine-2,4-diamine]
Average DHFR selectivity (h/tg) ([1]; hDHFR IC50/tgDHFR IC50): 119.54

Nc1ncc(N2CCN(c3cccc(-c4cncnc4)c3)CC2)c(N)n1 [Compound 74, 5-(4-(3-(pyrimidin-5-yl)phenyl)piperazin-1-yl)pyrimidine-2,4-diamine]
tgDHFR pIC50-DHFR primary assay [1]: 8.32
hDHFR pIC50-DHFR primary assay ([3]; Table 11): 5.84

CCc1nc(N)nc(N)c1N1CCN(c2ccncc2)CC1 [Compound 36, 6-ethyl-5-(4-(pyridin-4-yl)piperazin-1-yl)pyrimidine-2,4-diamine]
Average DHFR selectivity (h/tg) ([1]; hDHFR IC50/tgDHFR IC50): 110.92

Nc1ncc(N2CCN(c3cccc(Br)c3)CC2)c(N)n1 [Compound 11, 5-(4-(3-bromophenyl)piperazin-1-yl)pyrimidine-2,4-diamine]
Average DHFR selectivity (h/tg) ([1]; hDHFR IC50/tgDHFR IC50): 37.15

Nc1ncc(N2CCN(c3cccc(N4CCOCC4)c3)CC2)c(N)n1 [Compound 25, 5-(4-(3-morpholinophenyl)piperazin-1-yl)pyrimidine-2,4-diamine]
Average DHFR selectivity (h/tg) ([1]; hDHFR IC50/tgDHFR IC50): 105.15

CCCc1nc(N)nc(N)c1N1CCC(c2ccccc2)CC1 [Compound 51, 5-(4-phenylpiperidin-1-yl)-6-propylpyrimidine-2,4-diamine]
Average DHFR selectivity (h/tg) ([1]; hDHFR IC50/tgDHFR IC50): 241.03

CC1CN(c2cnc(N)nc2N)CCN1c1cccc(-c2ccccc2)c1 (stereo not drawn) [Compound 26, 5-(4-([1,1′-biphenyl]-3-yl)-3-methylpiperazin-1-yl)pyrimidine-2,4-diamine]
Average DHFR selectivity (h/tg) ([1]; hDHFR IC50/tgDHFR IC50): 14.96
